Assay: Percent swelling of water-soluble film strips submerged in detergent formula
Type: physicochemical
Details: Minitab mixture regression on solvent component proportions, Formulas 7-16
Description: The term % swelling as used in the present application means the percent increase or decrease in weight, for example the weight of a pouch strip, such as a polyvinyl alcohol strip, following submersion in a detergent composition for a given period of time, for example twenty-four hours (hr). The % swelling is calculated as described in the examples by taking a post-soaking weight, subtracting an initial, pre-soaking weight, and dividing by the initial, pre-soaking weight. To measure the percent (%) swelling, a fresh sheet of film was traced and cut into three identical film strips (3 cm wide by 8.5 cm long) for each formula being tested. Strips were labeled #1, #2, and #3 and placed into a tared petri dish one by one, recording the weights of each piece of film individually. Strips #1 and #2 were placed parallel to one another on the bottom of the petri dish and strip #3 was laid perpendicularly over strips #1 and #2. The petri dish was then filled half way, ensuring all film strips were submerged in the formula being tested. The petri dish was wrapped with parafilm, sealing around the edge of the petri dish. […] The cleaned film strip #3 was placed into a clean, tared petri dish lid, and the final weight of the film strip was recorded. […] Percent (%) swelling ratios were determined for Formulas 7-16 using polyvinyl alcohol (PVA) strips. […]

SMILES | estimated regression coefficient for % swelling
OCC(O)CO [Glycerin] | 0.8037
CC(O)CO (centres unmarked) [PG, Propylene Glycol] | 0.4263
